Assay type in all cases: cell-based, human
The test system of one assay is acetylated H3 histone. Put plainly: Histone deacetylase inhibition: western blot for acetylated histone H3 in cells incubated 6 hours with drug. The note with it: for Acetyl-H3 densitometric value: 6 hours, untreated = 1; for H3 histone acetylating activity, in words: summary in description. On the procedure:
(§1) The new described compounds were tested for their ability to inhibit the histone deacetylase activity by western blot for the acetylated isoforms of histone H3 and H4 and also to induce growth arrest in cancer cells by activating apoptosis and/or cell differentiation. Initially, biological activities of newly synthesized HDACi were assessed by using the human acute promyelocytic leukemia cell line NB4, as the experimental model. Cells were maintained in RPMI (Bio-Whittaker Europe, Verviers, Belgio) supplemented with 10% of fetal calf serum (FCS, Boehringer Mannheim, Germania) and 2 mM glutamine (Merck, Darmstadt, Germania) at 37° C. in a humidified atmosphere of 5% CO2. Cells were counted in a Burker chamber and cells viability was assessed by the trypan blu exclusion test.
(§2) Cells, obtained as described above, were harvested in sterile plates (Falcon, Becton Dickinson, Franklin Lakes, N.J.) at density of 6×10^5/mL, and incubated for 6 hours with increasing drug concentration of single compounds. Then, the cells were lysated with RIPA buffer (50 mM Tris-HCl pH 7.4, 150 mM NaCl, 1% Nonidet P-40, 1 mM EDTA plus protease inhibitor cocktail (Protease Inhibitor Cocktail Set III, n° cat. 539134, Calbiochem, Merck, Darmstadt, Germany) and sonicated (Labsonic 1510) twice for 15s pulses at 1-2 Watts in ice. Protein concentration of cell extracts was determined according to the bicinchoninic acid colorimetric method (BCA, Pierce, Rockford, USA) by using serum bovine albumin as the standard (BSA, Sigma, Steinheim, Germania). Equal amounts of protein (20-40 μg/20-30 μL/well) were separated on NuPAGE Bis-Tris 12% gel (Novex, Invitrogen, Carlsbad, Calif.) 10% and transferred to nitrocellulose membranes (Pro-Bind, pore diameter=0.45 μm; Amersham Pharmacia). Then membranes, incubated in phosphate buffer saline (PBS) with 6% defatted dry milk as blocking solution to saturate unspecific binding sites, were probed overnight at 4° C. with primary antibodies (1;1000 dilution in PBS) raised against acetylated H4 a H3 histone isoforms (Upstate Technologies, Lake Placid, N.Y., USA). […] The experiment was performed with the compound (II) S form, where R1 and R2 can be independently a methyl group or hydrogen.
For orientation: A western blot detects proteins with antibodies after separation by electrophoresis.

A further assay has as its system acetylated H4 histone. Put plainly: Histone deacetylase inhibition: western blot for acetylated histone H4 in cells incubated 6 hours with drug. Conditions: for Acetyl-H4 densitometric value: 6 hours, untreated = 0; for H4 histone acetylating activity, in words: summary in description. On the procedure:
as §1, §2

Assay [1] deals with NB4 cells. The assay can be described thus: Cytostatic and apoptotic activity, Annexin-V-FLUOS/propidium iodide flow cytometry, 48 hours. The note with it: for IC50: Homo sapiens, NB-4, 48 hours, graphic extrapolation of Annexin-V results, viable cells over control, read-out: IC50 (drug concentration reducing cell density or viability by 50%). On the procedure: as §1
Cells, were initially harvested at 4×10^5/mL (3 mL/well) cell density 24 well plate and incubated for 48 hours with increasing drug concentration. All compounds were solubilized in DMSO so that the final concentration of vehicle in culture was lower than 0.1%. At the end of treatment cell viability and apoptosis were evaluated by cytofluorimetric analysis using Anexin-V-Fluos staining (Annexin-V-FLUOS Staining Kit, Roche Molecular Biochemicals, Mannheim, Germany).
Necrotic cells, which are also Annexin-V positive, were identified by using Propidium iodide fluorochrome, that is capable of penetrating cell membranes of dying or dead cells and binding DNA.
Briefly, aliquots of cell suspensions (approximately 10^5 cells) washed in buffer PBS, were resuspended in 5 μl of binding buffer containing annexin V-fluorescein isothiocyanate (FITC) and propidium iodide; incubation was carried out for 15 minutes at room temperature, and cells were then analyzed by flow cytometry (FACScan Becton-Dickinson, San Jose, Calif.).
The IC50 values (i.e. the drug concentration necessary to reduce cell density or viability by 50% as compared to untreated control cultures) obtained by graphic extrapolation of the Anexin-V results and expressed as percentage of viable cells over control were reported In Table 2.
Data represent the percentage of viable cells as the function of drug concentration.

Assay [2] deals with NB4 cells. Put plainly: Granulocytic differentiation, NBT reduction assay, alone or with ATRA. The note with it: three days. On the procedure:
The analysis of functional myeloid differentiation induced by compounds of the invention was accomplished by Nitro-Blu tetrazolium (NBT) reduction assay as described below. Cell suspension (approximately 10^5/mL) were incubated in the presence of 0.25 mg/mL NBT and 500 ng of PMA (Phorbol-12-Myristate 13-acetate) (Sigma) at 37° C. for 30 minutes. Granulocyte or monocyte differentiated cell were capable of reducing NBT to dark formazan precipitate (blu positive cells). NBT positive cells were counted on Burker chamber and expressed as percentage of total cell population.
(§3) • Compounds (II) in racemic form and enantiomers S or R. • Compounds (III) in racemic form and enantiomers S or R. • Compounds (II) with R1 and R2=hydrogen were tested for their capability to synergize with ATRA and for their ability to induce granulocyte differentiation in the human promyelocytic cell line NB4. ATRA at the final concentration of 1 μM is usually employed to induce granulocyte differentiation in NB4 cells.
(§4) NB4 cells were incubated for three days in presence of the compounds listed above, alone or in combination with ATRA. Granulocyte differentiation of leukemic cells was determined by (a) Nitro-Blu tetrazolium (NBT) reduction to dark formazan precipitate (blu positive cells) counting NBT positive cells on Burker chamber and (b) cytofluorimetric analysis of CD11b membrane expression (granulocyte marker, see example 32).

Assay [3] relates to NB4 cells. Put plainly: Granulocytic differentiation, cytofluorimetric analysis of CD11b membrane expression, alone or with ATRA. Conditions: for % of CD11b+ cells: three days. As to the method:
Identification of markers of myeloid maturation was determined by flow cytometry by labelling cells with PE-conjugated antibody and FITC-conjugated antibody to CD11b (granulocyte marker) and CD14 (monocyte marker) respectively (Becton-Dickinson). Cell suspension aliquots (1×10^5 cells) were washed with cell wash buffer (Becton-Dickinson) and incubated with antibodies for 30 minutes in ice. After the incubation cells, resuspended in 0.3 mL of buffer containing Actinomycin D (Becton-Dickinson) to evaluate cell viability, were submitted to the cytofluorimetric analysis (FACScan, Becton-Dickinson). Cells incubated with appropriately labeled isotype controls were used to gate nonspecific fluorescence signal.
as §3, §4

Assay [4] concerns NB4 cells. Put plainly: Morphologic evaluation of apoptosis, May-Grünwald-Giemsa stained cytosmears. The note with it: FIG. 1 panel C, magnification ×650. As to the method:
Cells were fixed with acid acetic/methanol (⅓, v/v), then 20 μL of fixed cell suspension were placed on glass slide and let dry for 24 h. The cytosmears were stained with May-Grünwald-Giemsa and apoptotic cells were identified according to the typical morphologic parameters such as nuclear fragmentation, reduction of cell volume and apoptotic bodies. Image analyses were obtained by using a Nikon Eclipse 50i microscope equipped with a Nikon Digital Sight DS -5M (Nikon Corporation, Tokyo, Japan).

For `C[C@@H]1N=C(c2ccccc2)c2cc(C#CCCCC(=O)NO)ccc2N(C)C1=O` [Compound (II) S form with R1 or R2 = Me, (S)-6-(1,3-dimethyl-2-oxo-5-phenyl-2,3-dihydro-1H-benzo[e][1,4]diazepin-7-yl)-N-hydroxyhex-5-ynamide], the Acetyl-H3 densitometric value in the assay with acetylated H3 histone (0.5 μM) is 2.88 arbitrary units; with acetylated H3 histone (1 μM) it was 3.85 arbitrary units; in the assay on acetylated H3 histone (2.5 μM), 5.23 arbitrary units. The “H3 histone acetylating activity, in words” value with acetylated H3 histone is on record as “good activity to induce H3 histone acetylation in a dose-dependent way”. For the same molecule, the values for the Acetyl-H4 densitometric value in the assay on acetylated H4 histone (0.5 μM), in the assay on acetylated H4 histone (1 μM) and in the assay on acetylated H4 histone (2.5 μM) were 1 arbitrary units, 1.33 arbitrary units and 12.96 arbitrary units, respectively. In the assay on acetylated H4 histone, the “H4 histone acetylating activity, in words” value is reported as “facilitating, in its enantiomerically pure (S) form, H4 histone acetylation”. Also, in the assay with NB4 cells [1], the IC50 was 1700 nM. In addition, the “% of NBT+ cells” value is on record as 41% with NB4 cells [2] (1.5 μM compound + 20 nM ATRA) and “≦1%” with NB4 cells [2] (1.5 μM compound alone). Further, the “% of CD11b+ cells” value in the assay on NB4 cells [3] (1.5 μM compound + 20 nM ATRA) came out at 62.3%; in the assay on NB4 cells [3] (1.5 μM compound alone), 36.3%. In addition, the “morphology of treated cells (apoptosis)” value with NB4 cells [4] is given as “massive nuclear fragmentation suggestive of a typical apoptotic process”.

For `C[C@H]1N=C(c2ccccc2)c2cc(NC(=O)CCCCCCC(=O)NO)ccc2N(C)C1=O` [Compound (III) R form with R1 or R2 = Me, (R)—N1-(1,3-dimethyl-2-oxo-5-phenyl-2,3-dihydro-1H-benzo[e][1,4]diazepin-7-yl)-N8-hydroxyoctanediamide], the figures for the Acetyl-H3 densitometric value in the assay with acetylated H3 histone (1 μM), in the assay on acetylated H3 histone (2 μM) and with acetylated H3 histone (5 μM) were 4.46 arbitrary units, 6.85 arbitrary units and 7.27 arbitrary units, respectively. The “H3 histone acetylating activity, in words” value in the assay on acetylated H3 histone is recorded as “good H3 histone acetylating activity”. The Acetyl-H4 densitometric value with acetylated H4 histone (1 μM) is 17.78 arbitrary units; with acetylated H4 histone (2 μM), 29.63 arbitrary units; in the assay with acetylated H4 histone (5 μM) it was 34.07 arbitrary units. The “H4 histone acetylating activity, in words” value with acetylated H4 histone is “excellent H4 histone acetylating activity”. The IC50 in the assay on NB4 cells [1] was 3700 nM. Moreover, the “apoptotic activity, in words” value in the assay on NB4 cells [1] (leukemic cells, summary in description) is given as “high apoptotic activity”. Also, the “% of NBT+ cells” value in the assay on NB4 cells [2] (3 μM compound + 20 nM ATRA) is 70%; in the assay with NB4 cells [2] (3 μM compound alone), 3%. Also, the results for the “% of CD11b+ cells” value in the assay on NB4 cells [3] (3 μM compound + 20 nM ATRA) and in the assay on NB4 cells [3] (3 μM compound alone) were 80% and 39.3%, respectively. Further, the “effect on CD11b positive cells, in words” value in the assay with NB4 cells [3] (alone or in combination with 20 nM ATRA) is reported as “augmented the percentage of CD11b positive cells”.

The record behind these values is US8324202B2, “5-phenyl-1H-benzo [E] [1,4] diazepine compounds substituted with an hydroxamic acid group as histone deacetylase inhibitors” (Universita Degli Studi di Firenze, priority 2007, dated 2012).
